The values that follow come from patent US12497359B2, “Acrylamide derivatives” (NRG Therapeutics Ltd, priority 2020, dated 2025).

What is called solubility is the dissolved amount per volume that the medium holds.

A short description of series [1]: Hepatocyte clearance assay, rat. The class given is in vitro ADME. The following applies: cryopreserved primary rat hepatocytes, average value from two experiments, read-out: Rat heps intrinsic clearance (CLint). As to the method:
(§1) In vitro clearance studies were performed in primary rat and human hepatocytes (BioIVT). Vials of cryopreserved rat or human hepatocytes were thawed in a 37° C. water bath for 2 min. Cells were transferred into thawing medium (Williams' Medium E containing 30% Percoll, 1× GlutaMAX-1, 15 mM HEPES, 5% fetal bovine serum (FBS), 4 μg/ml insulin, 1 μM dexamethasone), centrifuged at 100 g for 10 min then resuspended in culture medium (Leibovitz's L-15 Medium) at a concentration of 0.5×10^6 viable cells/mL (number of viable cells assessed using AO/PI staining). Hepatocytes (198 μL) were transferred into wells of a 96-well non-coated plate and placed in a 37° C. incubator for 10 min. Test compound solutions were prepared from 10 mM stocks in DMSO, diluted to 100 μM in 50% (v/v in water) acetonitrile. Test compound samples (2 μl) were added to each well of hepatocytes and incubated at 37° C. Samples (25 μl) were collected at t=0, 15, 30, […] and 120 min, mixed with 6 volumes (150 μl) of acetonitrile containing internal standard (100 nM alprazolam, 200 nM caffeine and 100 nM tolbutamide), vortexed for 5 min and centrifuged for 45 min at 3220 g. An aliquot of supernatant (100 μL) was diluted with 100 μL ultra-pure water, and the mixture was used for LC/MS/MS analysis. All incubations were performed in duplicate. Peak areas were determined from extracted ion chromatograms. The slope value, k, was determined by linear regression of the natural logarithm of the remaining percentage of the parent drug vs. incubation time curve. The in vitro half-life (in vitro t1/2) was determined from the slope value: in vitro t1/2=0.693/k. Conversion of the in vitro t1/2 (in min) into the in vitro intrinsic clearance (in vitro CLint, in μL/min/1×10^6 cells) was done using the following equation (mean of duplicate determinations): • in vitro CLint=kV/N • V=incubation volume (0.2 mL) • N=number of hepatocytes per well (0.1×10^6 cells). Microsomal Clearance Assay

The subject of series [2] is mPTP. In words: mPTP activity assay in isolated rat liver mitochondria (Ca2+ retention, Fluo5N, FLIPR). The class given is biochemical. Conditions: isolated rat liver mitochondria; average value from multiple experiments (n ≥ 2). An excerpt:
Pharmacological inhibition or modulation of the mPTP can be measured in well characterised ‘Ca^2+ retention’ assays performed in isolated mitochondria. In vitro, isolated mitochondria rapidly sequester exogenous Ca^2+ until the intramitochondrial Ca^2+ concentration reaches the threshold for mPTP activation. Once the pore is activated, mitochondrial integrity is compromised and the stored Ca^2+ is released. The distribution of Ca^2+ between extra- and intra-mitochondrial compartments can be measured in real time with the use of membrane-impermeant Ca^2+ sensitive fluorescent dyes. Depending on the configuration of the assay, inhibition or modulation of the mPTP either delays the opening of the pore or increases the concentration of Ca^2+ required to induce mPTP opening.
mPTP activity was measured in mitochondria freshly isolated from female Sprague Dawley (250 to 300 gram) rat livers using the following method. Cervical dislocation was performed on the rat. The liver was then perfused in-situ with ˜40 ml cold Dulbecco's Phosphate Buffered Saline (DPBS) prior to dissection and transferred into 30 ml Isolation Buffer (250 mM Sucrose, 10 mM KCl, 1 mM EGTA, 1 mM EDTA, 25 mM HEPES, adjusted to pH 7.5 with 1 M NaOH). Each lobe of the liver was then removed from the buffer, minced using tweezers and a scalpel into ˜5 mm pieces then transferred into a 50 ml Potterton dounce homogenization tube on ice containing 30 ml ice-cold centrifugation buffer (300 mM Trehalose, 25 mM HEPES, 1 mM EGTA, 1 mM EDTA, 10 mM KCl, adjusted to pH 7.5 with 1 M NaOH and supplemented with 0.1% bovine serum albumin (BSA) and complete protease inhibitor cocktail (one tablet of inhibitor per 50 mls of buffer). Homogenisation was carried out using a teflon pestle at 1800 rpm. The slurry was centrifuged at 800 g for 10 min at 4° C., then the supernatant centrifuged at 10,000 g for 10 min. The pellet was washed once with FLIPR assay buffer (75 mM Mannitol, 25 mM Sucrose, 5 mM Potassium Phosphate Monobasic, 20 mM Tris base, 100 mM KCl, 0.1% BSA adjusted to pH 7.4 with 5 M HCl) centrifuged again, then resuspended in FLIPR assay buffer to a concentration of 8.8 mg/ml protein.
Test compounds (10 mM stock in DMSO) were serially diluted in DMSO in half log steps to generate 10 test concentrations (final concentrations in assay 30 μM to 1 nM). An intermediate dilution of 5 μl DMSO samples into 247 μl FLIPR assay buffer was carried out prior to transfer of 5 μl into duplicate wells of a 384 well polypropylene assay plate. Control wells were 0.5% (v/v) DMSO and 5 μM cyclosporin A.
A stock mitochondria/Fluo5N assay solution was prepared in 5.6 ml FLIPR assay buffer (at RT) supplemented with succinate disodium salt (10 mM), rotenone (1 μM), Fluo5N pentapotassium salt (2 μM) and 1 ml mitochondria suspension, then transferred (15 μl) into the assay plate containing test compounds and incubated for 10 min at RT. Assay plates were then transferred to a FLIPR Tetra plate reader (Molecular Devices). Dye fluorescence was then measured every 3 sec for a total of 10 min. After 12 sec, a 2.5 μl bolus of CaCl2 (75 μM) was added from a source plate containing 675 μM CaCl2 in FLIPR assay buffer. IC50 values for test compounds were calculated using the fluorescence value collected at the 10 min timepoint with % inhibition calculated using the DMSO control and cyclosporin A values as […] respectively.

The nature of series [3]: FaSSIF solubility. The following applies: kinetic from dmso stock, Fasted state simulated intestinal fluid, 2 hr at 25° C. Type of series: physicochemical. As to the method:
(§2) Test compounds were prepared as 10 mM stocks in DMSO and 15 μl samples transferred in duplicate into 1.5 mL glass flat bottom vials (BioTech Solutions). Fasted state simulated intestinal fluid (FaSSIF) or PBS (pH 7.4) was added to each vial to final volume of 500 μl. One PTFE encapsulated stir stick (V&P Scientific) was placed in each vial before sealing with PTFE/SIL plugs (BioTech Solutions). Vials were shaken at 1100 rpm for 2 hr at 25° C. Samples were then filtered through MultiScreen Solvinert filter plates (Millipore) via vacuum filtration. Aliquots of filtrate (5 μl) plus 5 μl DMSO were diluted in 490 μl 50% acetonitrile in water containing internal standard. The filtrate was analysed and quantified against a standard of known concentration using LC-MS/MS. Solubility values of the test compound and control compound were calculated as follows: [Sample]=(Area ratiosample*INJ VOL STD*DFsample*[STD])/(Area ratio STD*INJ VOLsample).

The nature of series [4]: Hepatocyte clearance assay, human. Type of series: in vitro ADME. Conditions: cryopreserved primary human hepatocytes, average value from two experiments, read-out: Human heps intrinsic clearance (CLint). How it is done:
as §1

For series [5], the system named is mPTP. In words: mPTP activity assay in isolated rat brain mitochondria. Type of series: biochemical. Conditions: isolated rat brain mitochondria. How it is done:
MPTP activity was measured in brain mitochondria freshly isolated from female Sprague Dawley (250 to 300 gram) rats. Anaesthetised rats were perfused in-situ with ˜40 ml cold Dulbecco's Phosphate Buffered Saline (DPBS), then brains dissected and transferred into 30 ml Isolation Buffer (225 mM mannitol, 75 mM sucrose, 1 mM EGTA, adjusted to pH 7.4 with 1 M NaOH). The brain was minced using tweezers and a scalpel into ˜5 mm pieces then transferred into a 50 ml Potterton Dounce homogenization tube on ice containing 10 ml ice-cold isolation buffer (as above with addition of Complete Protease inhibitor; 1 tablet per 50 ml buffer). Homogenisation was carried out using a teflon pestle at 1800 rpm. The slurry was centrifuged at 2000 g for 10 min at 4° C., then the supernatant centrifuged at 12,000 g for 9 min. The pellet was resuspended with a dounce homogeniser in isolation buffer as above but with the addition of 0.02% digitonin, centrifuged at 12,000 g for 11 min and finally resuspended in 5 ml modified isolation buffer (as above but with EGTA reduced to 0.1 mM).
Test compounds were prepared in 384 well polypropylene assay plates as described above for the liver mitochondria assay. A stock mitochondria/Fluo5N assay solution was prepared in 5.6 ml assay buffer (120 mM mannitol, 40 mM MOPS, 5 mM KH2PO4, 60 mM KCl, 10 mM pyruvate, 2 mM malate, 2 mM MgCl2, 20 μM ADP, 1.26 μM oligomycin A, adjusted to pH 7.4) supplemented with Fluo5N pentapotassium salt (2 μM) and 1 ml mitochondria suspension, then transferred (15 μl) into the assay plate containing test compounds and incubated for 10 min at RT. Assay plates were then transferred to a FLIPR Tetra plate reader (Molecular Devices). Dye fluorescence was then measured every 3 sec for a total of 10 min. After 12 sec, a 2.5 μl bolus of Ca2+(75 μM) was added from a source plate containing 675 μM CaCl2 in FLIPR assay buffer. IC50 values for test compounds were calculated using the fluorescence value collected at the 10 min timepoint with % inhibition calculated using the DMSO control and cyclosporin A values at […].

The nature of series [6]: PBS solubility. The class given is physicochemical. The following applies: aqueous buffer, kinetic from dmso stock; PBS pH 7.4, 2 hr at 25° C. How it is done:
as §2

Series [7] is described as follows: Microsomal clearance assay, rat liver microsomes. Conditions: average value from two experiments, read-out: Rat liver microsomes intrinsic clearance (CLint). Type of series: in vitro ADME. As to the method: The microsomal stability of test compounds was evaluated using rat liver microsomes (BioIVT) with and without the cofactors nicotinamide adenine dinucleotide phosphate (NADPH) and uridine-diphosphate-glucuronic acid (UDPGA). Reactions were performed in a final volume of 250 μl pre-warmed (37° C.) 100 mM phosphate buffer containing 5 mM MgCl2, 0.025 mg/ml alamethicin, and 0.5 mg/ml rat liver microsomes. NADPH and UDPGA were included at 1 mM and 2 mM respectively, where appropriate. Reactions were started with the addition of 1 μM (final concentration) test compound. Verapamil was used as the positive control. Solutions were incubated in a water bath at 37° C. and aliquots collected at 0.5, 5, 15, 30 and 60 min. Reactions were stopped by the addition of 5 volumes of cold acetonitrile with internal standards (200 nM caffeine and 100 nM tolbutamide). Samples were centrifuged at 3220 g for 40 min. An aliquot of supernatant was diluted 1:1 In ultra-pure H20, then used for LC-MS/MS analysis. Peak areas were determined from extracted ion chromatograms. The slope value, k, was determined by linear regression of the natural logarithm of the remaining percentage of the parent drug vs. incubation time curve. The in vitro half-life (in vitro t1/2) was determined from the slope value: in vitro t1/2=0.693/k. Conversion of the in vitro t1/2 (min) into the in vitro intrinsic clearance (in vitro CLint, in μL/min/mg protein) was done using the following equation (mean of duplicate determinations): in vitro Clint=(0.693/t1/2)*(Vol of incubation (μl)/amount of protein (mg)).

In brackets after ≈: the same amount, converted by molar mass.

For `CO[C@H]1Cc2ccccc2[C@@H]1NC(=O)/C=C/c1ccc2cn[nH]c2c1` [Example 37, (E)-3-(1H-indazol-6-yl)-N-((1S,2S)-2-methoxy-2,3-dihydro-1H-inden-1-yl)acrylamide], the hepatocyte CLint at 1 µM is 25 µL/min/1e6 cells in series [1] and 13 µL/min/1e6 cells in series [4]. Besides, in series [2], the “mPTP Rat liver pIC50*” value is listed as 7.5. This molecule also had a solubility at 2 h in series [3] of 80 µM (≈ 26.7 µg/mL).
`O=C(/C=C/c1ccc2cn[nH]c2n1)NC1CCc2ccccc21` (centres unmarked) [Example 36, (E)-N-(2,3-dihydro-1H-inden-1-yl)-3-(1H-pyrazolo[3,4-b]pyridin-6-yl)acrylamide]: in series [2], the “mPTP Rat liver pIC50*” value was 6.3. The molecule also registered a solubility at 2 h in series [3] of 45 µM (≈ 13.7 µg/mL). Besides, the hepatocyte CLint at 1 µM in series [4] amounted to 12 µL/min/1e6 cells.
As for `Cc1cccc(C)c1NC(=O)/C=C/c1ccc2cn[nH]c2c1` [Example 24, (E)-N-(2,6-dimethylphenyl)-3-(1H-indazol-6-yl)acrylamide], in series [5], the “mPTP Rat brain pIC50” value came out at 7.6. In addition, the solubility at 2 h was 1.2 µM (≈ 0.35 µg/mL) in series [6] and 3 µM (≈ 0.874 µg/mL) in series [3]. Also, the “mPTP Rat liver pIC50*” value in series [2] was determined as 7.6.
Regarding `O=C(/C=C/c1ccc2cn[nH]c2c1)Nc1ccccc1CCN1CC(F)C1` [Example 32, (E)-N-(2-(2-(3-fluoroazetidin-1-yl)ethyl)phenyl)-3-(1H-indazol-6-yl)acrylamide], the hepatocyte CLint at 1 µM worked out at 64 µL/min/1e6 cells in series [1] and 31 µL/min/1e6 cells in series [4]. For the same molecule, the “mPTP Rat liver pIC50*” value in series [2] amounted to 5.8. In series [3], the solubility at 2 h is 296 µM (≈ 108 µg/mL).
In the case of `O=C(/C=C/c1cc(F)c2cn[nH]c2c1)NC1CCc2ccccc21` (centres unmarked) [Example 11, (E)-N-(2,3-dihydro-1H-inden-1-yl)-3-(4-fluoro-1H-indazol-6-yl)acrylamide], the microsomal CLint at 1 µM in series [7] worked out at 58 µL/min/mg. Moreover, the hepatocyte CLint at 1 µM amounted to 45 µL/min/1e6 cells in series [1] and 26.7 µL/min/1e6 cells in series [4]. The concentration in solution in series [6] (solubility at 2 h) was 1.4 µM (≈ 0.45 µg/mL). Also, the “mPTP Rat liver pIC50*” value in series [2] was 7.3.
